# Experiments:
# cotton event MON 88913 = assay: Field trial, cotton lint yield after glyphosate treatment (10 locations); assay type: in vivo, Gossypium hirsutum
# Source text: (§1) The field trials were arranged in a randomized split plot design with three replications and three treatments. The events were planted in two row, 30-foot plots. The treatments consisted of unsprayed, 64 oz/A (1.5 lb ae/A) Roundup Ultra® at the 4, 6, 10, 14-node stages, and 96 oz/A (2.25 lb ae/A) Roundup Ultra® at the 4, 6, 10, 14-node stages. A mid-season plant map was completed on ten plants per plot. Boll retention data was collected for the first and second fruiting positions of the first five fruiting nodes that provides a boll retention value scale of 0-10. A plant with a boll retention value equal to or greater than 3 on the 0-10 scale has value as a new glyphosate tolerant plant selection.
# (§2) Yield is a measure of boll retention, cotton plants engineered for glyphosate tolerance that retain a substantial number of bolls in the first and second fruiting positions will maintain a yield advantage over cotton plants that are not as glyphosate tolerant. An effective dose of a glyphosate containing herbicide to control weeds in a field of MON 88913 comprises about 4 oz/A and may exceed 128 oz/A depending on the species of weed to be controlled and the stage of weed development. Glyphosate can be mixed with other herbicides to enhance the herbicidal activity against certain weed species.
# [1] = system: Roundup Ready cotton event 1445; assay: as above; assay type: in vivo, Gossypium hirsutum
# Source text: as §1, §2
# [2] = glyphosate 1.5 lb ae/A (64 oz/A Roundup Ultra) at the 4, 6, 10, 14-node stages
# [3] = glyphosate 2.25 lb ae/A (96 oz/A Roundup Ultra) at the 4, 6, 10, 14-node stages
structure (smiles),measurement,setting,value
"O=C(O)CNCP(=O)(O)O [Glyphosate, N-phosphonomethylglycine]","Yield (lb/A) of 10 Locations, cotton lint",cotton event MON 88913; [2],2587.61 lb/A
same,"Yield (lb/A) of 10 Locations, cotton lint",cotton event MON 88913; [3],2412.3 lb/A
same,"Yield (lb/A) of 10 Locations, cotton lint",[1]; [2],1044.19 lb/A
same,"Yield (lb/A) of 10 Locations, cotton lint",[1]; [3],831.47 lb/A
